From ChEMBL document CHEMBL3132769, “Fragment growing to retain or alter the selectivity of anchored kinase hinge-binding fragments” (Medchemcomm, 2014)

Key:
[1] = molecular target: T1, Serine/threonine-protein kinase 3 (Homo sapiens) (UniProt Q13188); experiment: Inhibition of human full length MST2 expressed in baculovirus assessed as substrate phosphorylation using fluorescence-labelled peptides as substrate at 8 uM after 90 mins by microfluidic peptide phosphorylation assay
T1 sequence (whole entry): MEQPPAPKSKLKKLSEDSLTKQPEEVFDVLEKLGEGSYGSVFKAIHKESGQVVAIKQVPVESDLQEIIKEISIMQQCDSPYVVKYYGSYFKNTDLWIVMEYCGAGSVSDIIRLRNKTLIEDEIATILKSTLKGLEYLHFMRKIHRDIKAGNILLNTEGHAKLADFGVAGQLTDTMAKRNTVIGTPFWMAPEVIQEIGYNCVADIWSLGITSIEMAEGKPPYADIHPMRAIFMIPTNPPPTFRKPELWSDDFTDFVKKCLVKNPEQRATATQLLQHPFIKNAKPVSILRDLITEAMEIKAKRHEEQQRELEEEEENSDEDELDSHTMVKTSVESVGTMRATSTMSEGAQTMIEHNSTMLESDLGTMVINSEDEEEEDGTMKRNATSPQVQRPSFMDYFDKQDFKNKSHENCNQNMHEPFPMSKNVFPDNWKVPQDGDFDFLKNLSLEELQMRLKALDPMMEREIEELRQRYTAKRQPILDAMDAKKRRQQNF

[2] = molecular target: T2, Mitogen-activated protein kinase 13 (Homo sapiens) (UniProt O15264); experiment: Inhibition of human full length p38 delta expressed in Escherichia coli cell assessed as substrate phosphorylation using fluorescence-labelled peptides as substrate at 8 uM after 90 mins by microfluidic peptide phosphorylation assay
T2 sequence (whole entry): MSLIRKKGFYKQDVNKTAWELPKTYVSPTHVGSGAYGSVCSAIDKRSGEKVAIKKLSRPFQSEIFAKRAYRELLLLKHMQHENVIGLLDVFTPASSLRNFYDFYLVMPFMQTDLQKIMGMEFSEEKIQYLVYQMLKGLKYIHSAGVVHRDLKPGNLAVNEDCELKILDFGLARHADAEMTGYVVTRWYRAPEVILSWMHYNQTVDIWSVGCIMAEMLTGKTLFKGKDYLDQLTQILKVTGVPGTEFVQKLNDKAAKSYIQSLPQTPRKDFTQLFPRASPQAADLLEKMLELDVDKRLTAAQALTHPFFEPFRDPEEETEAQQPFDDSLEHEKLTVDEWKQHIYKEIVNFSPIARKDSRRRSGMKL

[3] = molecular target: T3, Aurora kinase C (Homo sapiens) (UniProt Q9UQB9); experiment: Inhibition of human full length AurC expressed in baculovirus assessed as substrate phosphorylation using fluorescence-labelled peptides as substrate at […] after 90 mins by microfluidic peptide phosphorylation assay
T3 sequence (whole entry): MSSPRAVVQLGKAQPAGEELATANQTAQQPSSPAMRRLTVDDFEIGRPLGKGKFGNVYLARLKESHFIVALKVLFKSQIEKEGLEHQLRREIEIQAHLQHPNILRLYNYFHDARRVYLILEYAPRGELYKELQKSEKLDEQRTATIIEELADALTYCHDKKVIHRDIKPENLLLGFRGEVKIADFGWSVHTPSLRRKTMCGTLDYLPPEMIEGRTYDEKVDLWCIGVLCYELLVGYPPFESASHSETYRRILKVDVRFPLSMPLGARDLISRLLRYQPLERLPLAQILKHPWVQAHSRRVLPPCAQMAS

[4] = molecular target: T1, Serine/threonine-protein kinase 3 (Homo sapiens); experiment: Inhibition of human full length MST2 expressed in baculovirus assessed as substrate phosphorylation using fluorescence-labelled peptides as substrate at 0.1 uM after 90 mins by microfluidic peptide phosphorylation assay
[5] = molecular target: Calcium/calmodulin-dependent protein kinase type II subunit beta (Homo sapiens) (UniProt Q13554); experiment: Inhibition of human CAMK2 beta catalytic domain expressed in baculovirus assessed as substrate phosphorylation using fluorescence-labelled peptides as substrate at 95 uM after 90 mins by microfluidic peptide phosphorylation assay
[6] = molecular target: T4, Serine/threonine-protein kinase Sgk1 (Homo sapiens) (UniProt O00141); experiment: Inhibition of human truncated SGK1 expressed in baculovirus assessed as substrate phosphorylation using fluorescence-labelled peptides as substrate at 95 uM after 90 mins by microfluidic peptide phosphorylation assay
T4 sequence (whole entry): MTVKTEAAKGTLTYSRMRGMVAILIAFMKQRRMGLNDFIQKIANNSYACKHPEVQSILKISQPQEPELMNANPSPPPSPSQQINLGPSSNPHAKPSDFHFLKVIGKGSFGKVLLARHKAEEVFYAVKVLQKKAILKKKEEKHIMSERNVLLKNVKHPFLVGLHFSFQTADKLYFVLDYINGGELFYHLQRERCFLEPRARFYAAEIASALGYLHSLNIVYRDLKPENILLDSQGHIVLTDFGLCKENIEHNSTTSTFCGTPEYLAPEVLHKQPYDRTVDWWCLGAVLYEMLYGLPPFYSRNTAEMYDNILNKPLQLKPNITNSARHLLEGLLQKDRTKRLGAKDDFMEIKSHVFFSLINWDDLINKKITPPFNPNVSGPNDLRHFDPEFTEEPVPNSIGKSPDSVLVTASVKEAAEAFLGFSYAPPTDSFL

[7] = molecular target: T5, Serine/threonine-protein kinase Sgk2 (Homo sapiens) (UniProt Q9HBY8); experiment: Inhibition of human full length SGK2 expressed in baculovirus assessed as substrate phosphorylation using fluorescence-labelled peptides as substrate at 95 uM after 90 mins by microfluidic peptide phosphorylation assay
T5 sequence (whole entry): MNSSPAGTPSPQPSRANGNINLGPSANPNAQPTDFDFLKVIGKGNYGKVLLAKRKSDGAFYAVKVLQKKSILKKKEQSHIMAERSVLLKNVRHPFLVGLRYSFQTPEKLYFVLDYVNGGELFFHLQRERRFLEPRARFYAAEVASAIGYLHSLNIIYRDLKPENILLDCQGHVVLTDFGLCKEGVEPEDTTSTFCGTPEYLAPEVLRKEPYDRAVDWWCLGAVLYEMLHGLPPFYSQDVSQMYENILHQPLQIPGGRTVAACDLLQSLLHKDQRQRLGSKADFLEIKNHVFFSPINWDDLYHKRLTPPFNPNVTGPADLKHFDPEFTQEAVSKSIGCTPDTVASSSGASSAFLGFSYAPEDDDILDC

[8] = molecular target: Insulin-like growth factor 1 receptor (Homo sapiens) (UniProt P08069); experiment: Inhibition of human IGF1R catalytic domain expressed in baculovirus assessed as substrate phosphorylation using fluorescence-labelled peptides as substrate at 420 uM after 90 mins by microfluidic peptide phosphorylation assay

Calcium/calmodulin-dependent protein kinase type II subunit beta (Homo sapiens), sequence (Q13554 whole entry, the tested form may be a part): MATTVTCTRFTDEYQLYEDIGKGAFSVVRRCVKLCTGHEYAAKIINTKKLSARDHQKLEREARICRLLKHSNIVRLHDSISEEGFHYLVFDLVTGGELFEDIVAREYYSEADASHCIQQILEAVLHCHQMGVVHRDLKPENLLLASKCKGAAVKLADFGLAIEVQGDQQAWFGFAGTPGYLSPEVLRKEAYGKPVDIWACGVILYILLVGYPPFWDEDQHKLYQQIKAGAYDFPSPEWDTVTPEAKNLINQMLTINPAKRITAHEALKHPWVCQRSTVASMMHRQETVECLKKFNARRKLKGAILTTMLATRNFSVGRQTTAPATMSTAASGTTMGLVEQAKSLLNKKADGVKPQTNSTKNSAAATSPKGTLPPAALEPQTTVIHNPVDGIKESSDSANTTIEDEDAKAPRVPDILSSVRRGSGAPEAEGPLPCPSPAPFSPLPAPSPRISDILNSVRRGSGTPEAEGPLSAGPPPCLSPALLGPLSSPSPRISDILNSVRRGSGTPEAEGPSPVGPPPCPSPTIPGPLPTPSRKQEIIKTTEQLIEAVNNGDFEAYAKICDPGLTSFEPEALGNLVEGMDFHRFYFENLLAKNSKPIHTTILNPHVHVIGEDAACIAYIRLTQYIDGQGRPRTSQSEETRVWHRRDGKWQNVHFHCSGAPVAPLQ

Compound: NCC1CCN(c2ncnc3[nH]ccc23)CC1
- inhibition [1]: 73%
- inhibition [2]: 5.5%

Compound: COC(=O)c1cnc(Nc2cnc(C#N)cn2)cc1NCC1CCNCC1
- inhibition [3]: 7.5%

Compound: C[C@H](CN(C)C)Oc1nc(Nc2cc3cccc(Cl)c3cn2)cnc1C#N
- inhibition [4]: 11.5%

Compound: NCCc1ccc(-c2ncnc3[nH]cnc23)cc1
- inhibition [5]: 2%
- inhibition [6]: 52.5%
- inhibition [7]: 50.5%

Compound: c1nc(N2CCOCC2)c2nc[nH]c2n1
- inhibition [8]: 15%
